Laboratory results taken from ChEMBL document CHEMBL5046253, “Synthesis and bioevaluation of diaryl urea derivatives as potential antitumor agents for the treatment of human colorectal cancer” (Eur J Med Chem, 2022).
pIC50: −log10 of the molar value. The source made the active and inactive calls. No cut-off for these calls is given here.

Columns and labels:
[1] = target: Phosphatidylinositol 4,5-bisphosphate 3-kinase catalytic subunit beta isoform (Homo sapiens, UniProt P42338); assay: Inhibition of PI3Kbeta (unknown origin) using PIP2 as substrate in presence of ATP incubated for 60 mins by ADP-glo based luminescence assay
Phosphatidylinositol 4,5-bisphosphate 3-kinase catalytic subunit beta isoform, sequence (P42338 whole entry, canonical isoform): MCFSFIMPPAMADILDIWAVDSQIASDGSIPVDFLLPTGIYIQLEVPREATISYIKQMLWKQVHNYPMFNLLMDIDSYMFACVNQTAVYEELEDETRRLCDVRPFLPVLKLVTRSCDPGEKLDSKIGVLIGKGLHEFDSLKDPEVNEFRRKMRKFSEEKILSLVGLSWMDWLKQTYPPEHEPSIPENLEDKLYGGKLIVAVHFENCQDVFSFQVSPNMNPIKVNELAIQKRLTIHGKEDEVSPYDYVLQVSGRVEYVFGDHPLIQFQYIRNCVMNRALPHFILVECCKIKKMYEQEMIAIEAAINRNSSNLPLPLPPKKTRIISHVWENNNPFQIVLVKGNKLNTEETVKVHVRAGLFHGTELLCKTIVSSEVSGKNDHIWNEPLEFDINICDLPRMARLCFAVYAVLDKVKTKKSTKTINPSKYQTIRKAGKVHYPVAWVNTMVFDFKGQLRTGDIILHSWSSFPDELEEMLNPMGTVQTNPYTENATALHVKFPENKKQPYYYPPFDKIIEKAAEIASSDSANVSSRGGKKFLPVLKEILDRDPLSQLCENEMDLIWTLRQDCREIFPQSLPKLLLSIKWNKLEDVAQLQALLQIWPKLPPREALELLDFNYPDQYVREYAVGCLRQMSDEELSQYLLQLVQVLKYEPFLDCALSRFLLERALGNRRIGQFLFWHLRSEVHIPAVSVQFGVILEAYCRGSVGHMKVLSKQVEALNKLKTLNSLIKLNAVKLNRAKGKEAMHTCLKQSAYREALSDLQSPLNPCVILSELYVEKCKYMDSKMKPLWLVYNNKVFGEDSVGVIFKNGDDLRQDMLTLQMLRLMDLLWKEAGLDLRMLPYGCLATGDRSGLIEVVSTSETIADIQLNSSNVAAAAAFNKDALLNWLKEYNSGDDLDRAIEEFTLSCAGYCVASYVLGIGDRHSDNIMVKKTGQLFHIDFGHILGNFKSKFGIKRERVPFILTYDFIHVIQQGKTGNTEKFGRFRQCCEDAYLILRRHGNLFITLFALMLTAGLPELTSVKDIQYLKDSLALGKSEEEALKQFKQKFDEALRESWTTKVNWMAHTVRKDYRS

[2] = target: Serine/threonine-protein kinase mTOR (Homo sapiens, UniProt P42345); assay: Inhibition of mTOR (unknown origin) using U-Light-4E-BP1 peptide as a substrate in presence of ATP incubated for 45 mins by Lance ultra assay
[3] = target: Phosphatidylinositol 4,5-bisphosphate 3-kinase catalytic subunit alpha isoform (Homo sapiens, UniProt P42336); assay: Inhibition of PI3Kalpha (unknown origin) using PIP2 as substrate in presence of ATP incubated for 60 mins by ADP-glo based luminescence assay
Phosphatidylinositol 4,5-bisphosphate 3-kinase catalytic subunit alpha isoform, sequence (P42336 whole entry, canonical isoform): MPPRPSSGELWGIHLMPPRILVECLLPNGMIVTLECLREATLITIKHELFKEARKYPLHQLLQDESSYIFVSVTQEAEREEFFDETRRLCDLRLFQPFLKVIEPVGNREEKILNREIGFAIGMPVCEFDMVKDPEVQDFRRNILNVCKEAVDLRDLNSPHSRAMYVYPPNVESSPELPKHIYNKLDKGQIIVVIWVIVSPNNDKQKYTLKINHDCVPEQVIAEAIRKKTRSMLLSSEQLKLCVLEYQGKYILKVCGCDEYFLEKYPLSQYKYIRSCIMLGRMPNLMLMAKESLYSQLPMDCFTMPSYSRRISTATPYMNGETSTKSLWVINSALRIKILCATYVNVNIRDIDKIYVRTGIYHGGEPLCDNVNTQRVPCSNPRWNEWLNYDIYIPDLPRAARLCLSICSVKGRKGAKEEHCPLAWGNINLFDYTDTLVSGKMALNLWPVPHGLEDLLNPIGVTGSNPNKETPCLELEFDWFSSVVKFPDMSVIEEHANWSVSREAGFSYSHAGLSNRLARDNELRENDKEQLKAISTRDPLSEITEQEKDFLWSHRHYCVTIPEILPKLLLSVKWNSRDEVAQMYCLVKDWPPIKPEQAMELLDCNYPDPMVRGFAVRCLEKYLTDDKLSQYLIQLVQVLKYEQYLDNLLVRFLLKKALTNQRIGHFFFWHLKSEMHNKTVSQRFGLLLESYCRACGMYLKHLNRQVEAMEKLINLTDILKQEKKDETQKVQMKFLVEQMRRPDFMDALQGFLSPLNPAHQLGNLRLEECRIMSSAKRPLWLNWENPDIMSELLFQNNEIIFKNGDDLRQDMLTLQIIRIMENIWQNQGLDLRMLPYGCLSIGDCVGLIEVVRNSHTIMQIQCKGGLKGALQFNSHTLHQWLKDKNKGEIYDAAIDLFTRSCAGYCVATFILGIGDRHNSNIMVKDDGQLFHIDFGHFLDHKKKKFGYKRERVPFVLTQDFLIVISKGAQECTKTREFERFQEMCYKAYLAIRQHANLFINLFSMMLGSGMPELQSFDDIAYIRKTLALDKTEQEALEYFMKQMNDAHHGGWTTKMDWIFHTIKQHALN

[4] = target: T1, Phosphatidylinositol 4,5-bisphosphate 3-kinase catalytic subunit delta isoform (Homo sapiens, UniProt O00329); assay: Inhibition of PI3Kdelta (unknown origin) using PIP2 as substrate in presence of ATP incubated for 60 mins by ADP-glo based luminescence assay
T1 sequence (O00329 whole entry): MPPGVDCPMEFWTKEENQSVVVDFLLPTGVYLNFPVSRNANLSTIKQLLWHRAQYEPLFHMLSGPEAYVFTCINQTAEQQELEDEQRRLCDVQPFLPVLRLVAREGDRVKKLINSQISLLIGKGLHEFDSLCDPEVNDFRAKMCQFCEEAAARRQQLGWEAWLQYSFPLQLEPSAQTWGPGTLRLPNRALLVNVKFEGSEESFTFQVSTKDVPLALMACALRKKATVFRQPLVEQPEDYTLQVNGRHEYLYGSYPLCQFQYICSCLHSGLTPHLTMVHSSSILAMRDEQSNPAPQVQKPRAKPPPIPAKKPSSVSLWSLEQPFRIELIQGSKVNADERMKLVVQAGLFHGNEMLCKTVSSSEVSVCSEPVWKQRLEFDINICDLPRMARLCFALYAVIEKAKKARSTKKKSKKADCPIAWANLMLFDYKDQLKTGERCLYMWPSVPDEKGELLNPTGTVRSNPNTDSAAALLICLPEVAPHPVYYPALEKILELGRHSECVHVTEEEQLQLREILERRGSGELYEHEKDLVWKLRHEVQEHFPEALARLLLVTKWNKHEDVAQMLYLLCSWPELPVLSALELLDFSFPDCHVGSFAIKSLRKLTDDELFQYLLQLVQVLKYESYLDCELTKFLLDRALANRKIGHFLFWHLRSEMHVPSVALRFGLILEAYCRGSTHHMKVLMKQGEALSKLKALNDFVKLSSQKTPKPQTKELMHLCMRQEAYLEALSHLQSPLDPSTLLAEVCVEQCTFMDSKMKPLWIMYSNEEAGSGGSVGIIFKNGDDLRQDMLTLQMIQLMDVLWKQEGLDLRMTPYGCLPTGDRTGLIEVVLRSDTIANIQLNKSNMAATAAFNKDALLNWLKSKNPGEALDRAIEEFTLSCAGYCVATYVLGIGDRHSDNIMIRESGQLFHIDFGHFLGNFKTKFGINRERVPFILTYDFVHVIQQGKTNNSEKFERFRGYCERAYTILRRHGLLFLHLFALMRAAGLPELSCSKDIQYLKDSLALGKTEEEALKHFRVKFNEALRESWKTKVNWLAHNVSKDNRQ

[5] = system: BaF3; assay: Antiproliferative activity against mouse BaF3 cells harboring EGFR L858R/T790M/C797S mutant assessed as reduction in cell viability incubated for 72 hrs by celltiter-glo assay; format: toxicity, cell-based; conditions: BaF3, 72 h
[6] = system: HepG2; assay: Antiproliferative activity against human HepG2 cells assessed as reduction in cell viability incubated for 48 hrs by MTT assay; format: functional, cell-based; conditions: HepG2, 48 h
[7] = system: MDA-MB-231; assay: Antiproliferative activity against human MDA-MB-231 cells assessed as reduction in cell viability incubated for 48 hrs by MTT assay; format: functional, cell-based; conditions: MDA-MB-231, 48 h
[8] = system: HeLa; assay: Antiproliferative activity against human HeLa cells assessed as reduction in cell viability incubated for 48 hrs by MTT assay; format: functional, cell-based
[9] = target: Phosphatidylinositol 4,5-bisphosphate 3-kinase catalytic subunit gamma isoform (Homo sapiens, UniProt P48736); assay: Inhibition of PI3Kgamma (unknown origin) using PIP2 as substrate in presence of ATP incubated for 60 mins by ADP-glo based luminescence assay
Phosphatidylinositol 4,5-bisphosphate 3-kinase catalytic subunit gamma isoform, sequence (P48736 whole entry, canonical isoform): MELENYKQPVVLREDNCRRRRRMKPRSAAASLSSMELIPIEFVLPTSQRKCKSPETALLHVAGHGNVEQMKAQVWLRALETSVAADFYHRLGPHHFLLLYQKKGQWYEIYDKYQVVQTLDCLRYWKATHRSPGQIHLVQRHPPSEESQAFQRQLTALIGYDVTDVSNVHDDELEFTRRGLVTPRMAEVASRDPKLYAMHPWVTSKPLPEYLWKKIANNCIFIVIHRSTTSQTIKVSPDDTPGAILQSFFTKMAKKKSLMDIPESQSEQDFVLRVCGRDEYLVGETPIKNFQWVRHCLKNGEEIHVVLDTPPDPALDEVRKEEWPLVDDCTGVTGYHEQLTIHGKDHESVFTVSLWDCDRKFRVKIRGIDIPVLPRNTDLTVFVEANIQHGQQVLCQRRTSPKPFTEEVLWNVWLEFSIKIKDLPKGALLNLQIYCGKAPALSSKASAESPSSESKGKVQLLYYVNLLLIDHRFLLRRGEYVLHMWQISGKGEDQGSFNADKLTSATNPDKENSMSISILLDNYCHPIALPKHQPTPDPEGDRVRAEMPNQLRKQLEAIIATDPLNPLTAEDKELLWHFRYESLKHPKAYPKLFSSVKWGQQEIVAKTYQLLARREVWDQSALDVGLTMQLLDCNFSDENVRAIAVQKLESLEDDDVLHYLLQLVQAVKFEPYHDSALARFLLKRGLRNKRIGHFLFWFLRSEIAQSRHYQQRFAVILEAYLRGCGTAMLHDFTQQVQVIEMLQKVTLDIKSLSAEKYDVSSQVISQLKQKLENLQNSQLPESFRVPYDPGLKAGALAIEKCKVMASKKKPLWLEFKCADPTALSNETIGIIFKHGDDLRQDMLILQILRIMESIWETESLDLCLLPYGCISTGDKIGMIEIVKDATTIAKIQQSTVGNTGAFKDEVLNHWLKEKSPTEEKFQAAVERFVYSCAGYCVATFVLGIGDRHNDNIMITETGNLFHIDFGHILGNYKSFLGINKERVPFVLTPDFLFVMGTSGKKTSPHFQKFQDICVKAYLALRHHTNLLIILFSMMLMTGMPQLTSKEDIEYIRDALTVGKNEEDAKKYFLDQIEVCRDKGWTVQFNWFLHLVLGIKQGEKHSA

[10] = system: CNE-2; assay: Antiproliferative activity against human CNE-2 cells assessed as reduction in cell viability incubated for 48 hrs by MTT assay; format: functional, cell-based; conditions: CNE-2, 48 h
[11] = system: NCI-H1975; assay: Antiproliferative activity against human NCI-H1975 cells harboring EGFR L858R/T790M double mutant assessed as reduction in cell viability incubated for 72 hrs by celltiter-glo assay; format: functional, cell-based; conditions: NCI-H1975, 72 h
[12] = system: A-431; assay: Antiproliferative activity against human A431 cells harboring wild type EGFR mutant assessed as reduction in cell viability incubated for 72 hrs by celltiter-glo assay; format: functional, cell-based; conditions: A-431, 72 h
[13] = system: HCT-116; assay: Antiproliferative activity against human HCT-116 cells assessed as reduction in cell viability incubated for 48 hrs by MTT assay; format: functional, cell-based; conditions: HCT-116, 48 h
[14] = system: Heart; assay: Toxicity in BALB/c mouse assessed as effect on heart by H and E staining based histological analysis; format: tissue-based; conditions: in vivo
[15] = system: Mus musculus; assay: Hyperglycemic activity in ICR mouse model assessed as effect on blood glucose level at 20 mg/kg, iv by glucometer; format: toxicity, organism-based; conditions: in vivo
[16] = system: Kidney; assay: Toxicity in BALB/c mouse assessed as effect on kidney by H and E staining based histological analysis; format: tissue-based; conditions: in vivo
[17] = MRT in Sprague-Dawley rat at 20 mg/kg, iv by LC-MS/MS analysis; format: ADME, organism-based; conditions: in vivo
[18] = system: Liver; assay: Toxicity in BALB/c mouse assessed as effect on liver by H and E staining based histological analysis; format: tissue-based; conditions: in vivo
[19] = AUC (0 to infinity) in Sprague-Dawley rat at 20 mg/kg, iv by LC-MS/MS analysis; format: ADME, organism-based; parameters: route intravenous, time infinity, dose 20 mg/kg; conditions: in vivo
[20] = system: HCT-116; assay: Antitumor activity against human HCT-116 cells xenografted in BALB/c nude mouse assessed as tumor size at 20 mg/kg, iv administered for 19 days (reference value: 1264.1+/-95.7 mm3); format: functional; conditions: time 19 day
[21] = Volume of distribution at steady state in Sprague-Dawley rat at 20 mg/kg, iv by LC-MS/MS analysis; format: ADME, organism-based; conditions: in vivo
[22] = system: HCT-116; assay: Antitumor activity against human HCT-116 cells xenografted in BALB/c nude mouse assessed as tumor growth inhibition at 20 mg/kg, iv administered for 19 days; format: functional; conditions: HCT-116, iv, 456 h, time 19 day, read-out: TGI
[23] = system: Lung; assay: Toxicity in BALB/c mouse assessed as effect on lungs by H and E staining based histological analysis; format: tissue-based; conditions: in vivo
[24] = target: Cytochrome P450 1A2 (Homo sapiens, UniProt P05177); assay: Inhibition of CYP1A2 (unknown origin); format: ADME
[25] = AUC (0 to 72 hrs) in Sprague-Dawley rat at 20 mg/kg, iv by LC-MS/MS analysis; format: ADME, organism-based; parameters: time < 72 hr, route intravenous, dose 20 mg/kg; conditions: in vivo
[26] = Half life in Sprague-Dawley rat at 20 mg/kg, iv by LC-MS/MS analysis; format: ADME, organism-based; conditions: in vivo
[27] = Metabolic stability in Sprague-Dawley rat liver microsome; format: ADME; conditions: microsomes
[28] = target: Cytochrome P450 2C9 (Homo sapiens, UniProt P11712); assay: Inhibition of CYP2C9 (unknown origin); format: ADME
Cytochrome P450 2C9, sequence (P11712 whole entry): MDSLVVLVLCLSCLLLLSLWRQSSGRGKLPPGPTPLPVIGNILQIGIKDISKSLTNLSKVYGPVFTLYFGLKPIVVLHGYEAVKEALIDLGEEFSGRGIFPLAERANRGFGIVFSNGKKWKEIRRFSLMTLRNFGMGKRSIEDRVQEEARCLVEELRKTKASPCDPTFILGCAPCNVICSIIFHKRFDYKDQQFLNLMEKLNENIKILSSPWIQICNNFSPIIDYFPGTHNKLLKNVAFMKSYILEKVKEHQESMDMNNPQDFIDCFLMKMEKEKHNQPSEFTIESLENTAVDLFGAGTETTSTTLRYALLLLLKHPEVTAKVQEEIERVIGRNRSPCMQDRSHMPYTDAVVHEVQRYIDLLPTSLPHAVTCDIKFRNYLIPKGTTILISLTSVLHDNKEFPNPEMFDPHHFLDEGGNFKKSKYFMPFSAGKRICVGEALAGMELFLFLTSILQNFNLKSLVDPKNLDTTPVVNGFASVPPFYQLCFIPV

[29] = Tmax in Sprague-Dawley rat at 20 mg/kg, iv by LC-MS/MS analysis; format: ADME, organism-based; conditions: in vivo
[30] = system: HCT-116; assay: Inhibition of AKT phosphorylation at S473 residue in human HCT-116 cells at 10 uM after 24 hrs by Western blot analysis; format: cell-based
[31] = target: Cytochrome P450 2D6 (Homo sapiens, UniProt P10635); assay: Inhibition of CYP2D6 (unknown origin); format: ADME
Cytochrome P450 2D6, sequence (P10635 whole entry): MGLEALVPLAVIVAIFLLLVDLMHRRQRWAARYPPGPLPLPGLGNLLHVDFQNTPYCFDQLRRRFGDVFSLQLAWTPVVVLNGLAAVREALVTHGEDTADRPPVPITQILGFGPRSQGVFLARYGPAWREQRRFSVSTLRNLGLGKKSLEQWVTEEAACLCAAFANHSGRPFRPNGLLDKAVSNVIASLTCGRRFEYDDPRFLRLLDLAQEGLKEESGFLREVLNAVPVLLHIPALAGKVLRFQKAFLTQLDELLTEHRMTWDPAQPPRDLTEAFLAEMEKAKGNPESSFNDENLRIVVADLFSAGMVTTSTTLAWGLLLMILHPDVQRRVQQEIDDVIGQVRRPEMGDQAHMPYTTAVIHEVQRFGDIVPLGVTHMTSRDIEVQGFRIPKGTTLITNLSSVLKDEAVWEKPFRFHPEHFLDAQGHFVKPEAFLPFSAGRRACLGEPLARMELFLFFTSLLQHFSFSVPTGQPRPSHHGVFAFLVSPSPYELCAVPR

[32] = target: Cytochrome P450 2C19 (Homo sapiens, UniProt P33261); assay: Inhibition of CYP2C19 (unknown origin); format: ADME
Cytochrome P450 2C19, sequence (P33261 whole entry): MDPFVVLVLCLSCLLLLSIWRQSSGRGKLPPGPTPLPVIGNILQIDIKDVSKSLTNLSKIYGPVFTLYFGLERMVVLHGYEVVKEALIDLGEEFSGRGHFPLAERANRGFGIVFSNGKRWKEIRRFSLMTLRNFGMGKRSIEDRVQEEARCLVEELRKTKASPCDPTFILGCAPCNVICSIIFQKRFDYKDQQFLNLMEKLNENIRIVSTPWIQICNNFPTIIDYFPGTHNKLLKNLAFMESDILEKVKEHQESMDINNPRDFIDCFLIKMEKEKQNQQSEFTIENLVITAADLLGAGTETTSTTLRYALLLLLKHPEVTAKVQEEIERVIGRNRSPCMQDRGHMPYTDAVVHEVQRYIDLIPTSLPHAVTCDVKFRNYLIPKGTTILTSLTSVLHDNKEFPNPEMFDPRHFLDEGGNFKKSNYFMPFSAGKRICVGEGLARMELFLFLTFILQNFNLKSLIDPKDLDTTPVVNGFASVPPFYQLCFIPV

[33] = system: Spleen; assay: Toxicity in BALB/c mouse assessed as effect on spleen by H and E staining based histological analysis; format: tissue-based; conditions: in vivo

Row | Compound | pIC50 [1] | pIC50 [2] | pIC50 [3] | pIC50 [4] | pIC50 [5] | pIC50 [6] | pIC50 [7] | pIC50 [8] | pIC50 [9] | pIC50 [10] | pIC50 [11] | pIC50 [12] | pIC50 [13] | other results
1 | NC(=O)[C@@H]1CC(O)CN1C(=O)c1ccc(NC(=O)Nc2ccc(-c3nc(N4CCOCC4)nc(N4CCOCC4)n3)cc2)cc1 (stereo partly specified) | 7.92 | 8.66 | 8.26 | 7.79 | 5.57 | 5.50 | 4.41 | 4.87 | 7.01 | 5.27 | 5.26 | 5.20 | 5.32 | –
2 | CN(C)C1CCN(C(=O)c2ccc(NC(=O)Nc3ccc(-c4nc(N5CCOCC5)nc(N5CCOCC5)n4)cc3)cc2)CC1 [GEDATOLISIB] | – | – | – | – | – | – | – | – | – | – | – | – | – | Activity [14]: Non-Toxic; Activity [15]: Toxic; Activity [16]: Non-Toxic; MRT [17]: 9.1 h; Activity [18]: Non-Toxic; AUC(0-inf) [19]: 42200 ng·h/mL; Activity [20]: 800.3 mm3; Vdss [21]: 10.3 L/kg; inhibition in vivo at 20 mg/kg [22]: 41.2%; Activity [23]: Non-Toxic; pIC50 [24]: < 4.30; AUC(0-t) at 72 h [25]: 41800 ng·h/mL; half-life [26]: 15 h; Stability [27]: Stable; pIC50 [28]: < 4.30; Tmax [29]: 1.8 min; inhibition [30]: Active; pIC50 [31]: < 4.30; pIC50 [32]: < 4.30; Activity [33]: Non-Toxic
3 | C[C@@H](NC(=O)c1ccc(NC(=O)Nc2ccc(-c3nc(N4CCOCC4)nc(N4CCOCC4)n3)cc2)cc1)C(N)=O | 8.29 | 8.68 | 9.05 | 7.60 | 6.26 | 6.34 | 6.03 | 5.72 | 7.55 | 4.90 | 5.47 | 5.94 | 5.44 | –
